Experimental data as given in patent US20200129582A1, “NOVEL PEPTIDES AND PEPTIDOMIMETICS” (UNIVERSITY OF AUCKLAND, priority 2016, published 2020).
Values joined by “and” are separate entries in the source; they are usually repeats but may differ in a detail not shown here. Equal entries are not always repeated. Where two headings read alike, the source gives them in different places.

What was measured:
[1] = target: T1, hemichannel-mediated ATP release from hCMVEC cells (Homo sapiens, UniProt P17302); test: In vitro ischemia injury ATP release assay (single alanine substituted and truncated peptides); format: cell-based
T1 construct: endogenous in cells; host or cells: hCMVEC (human cerebral microvascular endothelial cells)
Experimental: The human cerebral endothelial cells (hCMVEC) were plated at a density of 0.025×10^6 cells per well in a collagen-coated 12-well plate (1 μg/cm^2) a day prior to the experiment. Cells were incubated in culture medium overnight. Hypoxic, acidic, ion-shifted Ringer injury solution that mimics ionic concentrations and acid-base shifts of the interstitial space in hypoxic-ischemic brains (Bondarenko and Chesler, 2001, […]) was used to trigger hemichannel opening. The injury solution contained (in mM): 38 NaCl, 13 NaHCO3, 3 Na-gluconate, 65 K-gluconate, 38 NMDG-Cl, 1 NaH2PO4, and 1.5 MgCl2. The injury solution was bubbled in 95% N2, 5% CO2 gas (20 L/min) for 5 minutes and pH adjusted to 6.6 before use. The standard ringer solution contained (in mM): 124 NaCl, 3 KCl, 26 NaHCO3, 26 NaHCO3, 1 NaH2PO4, 1.3 CaCl2, 1.5 MgCl2, and 10 Glucose, and pH adjusted to 7.4 before use (Bondarenko and Chesler, 2001). In the ischemia injury model, hCMVEC cells were incubated for 2 hours in 500 μL injury solution+/−Peptide5 (100 μM) (O'Carroll et al., 2008, Cell communication & adhesion 15:27-42; Danesh-Meyer et al., 2012, Brain: a journal of neurology 135:506-520; Davidson et al., 2012, Annals of neurology 71:121-132; Davidson et al., 2013, Experimental neurology 248:301-308; Davidson et al., 2014, PloS one 9:e96558; Davidson et al., 2015, J Cereb Blood Flow Metab), or +/−extracellular loop sequences (Table 5), or modified peptides (Table 2, 3) dissolved in injury solution (500 μL) with a final concentration of 100 μM. For negative control, hCMVEC cells were incubated only in 500 μL standard ringer solution for 2 hours. For positive control, hCMVEC cells were incubated only in 500 μL […] for 2 hours. All incubations were conducted at 37° C. in 95% O2 and 5% CO2. At the end of each experiment, samples were removed and immediately placed on ice. The concentration of ATP in the samples was determined using a Luciferin/luciferase bioluminescence reaction (ATP Determination Kit, Molecular Probes) and detected using a luminescence plate reader (VICTOR X, Perkin Elmer #2030-0010). Standard curves were generated in each experiment from an ATP standard (0 to 500 nM) to convert bioluminescence units to ATP concentration. […] The data is presented as mean±standard error relative to the injury or injury-reperfusion positive control. Statistically significant differences between samples were tested using one-way analysis of variance and Tukey's multiple comparisons test.
Peptides listed in table 5 and 2 were assessed using the ischemia injury model in hCMVEC cells as described above, and the medium was collected for ATP release measurement.
The human cerebral endothelial cells (hCMVEC) were plated at a density of 0.025×10^6 cells per well in a collagen-coated 12-well plate (1 μg/cm^2) a day prior to the experiment. Cells were incubated in culture medium overnight. Hypoxic, acidic, ion-shifted Ringer injury solution that mimics ionic concentrations and acid-base shifts of the interstitial space in hypoxic-ischemic brains (Bondarenko and Chesler, 2001) was used to trigger hemichannel opening. The injury solution contained (in mM): 38 NaCl, 13 NaHCO3, 3 Na-gluconate, 65 K-gluconate, 38 NMDG-Cl, 1 NaH2PO4, and 1.5 MgCl2. The injury solution was bubbled in 95% N2, 5% CO2 gas (20 L/min) for 5 minutes and pH adjusted to 6.6 before use. The standard ringer solution contained (in mM): 124 NaCl, 3 KCl, 26 NaHCO3, 26 NaHCO3, 1 NaH2PO4, 1.3 CaCl2, 1.5 MgCl2, and 10 Glucose, and pH adjusted to 7.4 before use (Bondarenko and Chesler, 2001).

[2] = target: T2, Connexin43 protein (hemichannels of hCMVEC cells) (Homo sapiens, UniProt P17302); format: cell-based
T2 construct: endogenous in cells; host or cells: hCMVEC (human cerebral microvascular endothelial cells)
Experimental: (§1) Peptide5 interacting site on the Connexin43 protein was determined using a competition assay. Extracellular loop sequences (Auspep, Australia) were dissolved in miliQ H2O were at a stock concentration of 1 mM […]. Extracellular loop sequences were mixed with the native Peptide5 at 1:1 ratio (100 μM), which was left for 1 hour at room temperature prior to the experiment to allow competitive binding to occur. Following 1-hour incubation, extracellular loop sequence and peptide5 mixture was dissolved in injury solution and exposed to hCMVEC cells for 2 hours using the ischaemia-reperfusion model described above. Extracellular medium was then collected for ATP measurement.
as §1, with “interaction sites” for “interacting site”

[3] = test system: hemichannels and gap junction channels; details: O'Carroll et al., 2008; cited from earlier work
[4] = target: T2, Connexin43 protein (hemichannels of hCMVEC cells); format: cell-based; details: agent alone, 100 μM, FIG. 6, injury control 100±3.5%

T1 sequence (P17302 2-382 limits assumed): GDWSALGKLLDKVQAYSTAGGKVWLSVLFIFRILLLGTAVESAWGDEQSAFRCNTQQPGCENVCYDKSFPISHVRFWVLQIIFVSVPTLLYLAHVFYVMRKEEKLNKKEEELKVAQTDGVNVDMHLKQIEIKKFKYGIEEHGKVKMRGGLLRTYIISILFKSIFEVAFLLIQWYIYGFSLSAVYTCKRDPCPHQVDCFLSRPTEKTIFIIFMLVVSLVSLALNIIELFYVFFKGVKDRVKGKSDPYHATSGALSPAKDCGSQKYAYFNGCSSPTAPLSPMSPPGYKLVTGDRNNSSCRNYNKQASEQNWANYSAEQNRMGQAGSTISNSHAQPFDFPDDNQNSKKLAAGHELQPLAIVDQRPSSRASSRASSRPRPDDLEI
T2 sequence (P17302 2-382): as the sequence (P17302 2-382 limits assumed) above

Row | Molecule | ATP release compared to injury control (in words) [1] | ATP release, % of the injury control [1] | ATP release, % of the injury control [2] | high concentration that inhibits both hemichannel and gap junction channel function [3] | low concentrations that specifically inhibit hemichannels [3] | ATP release compared to injury control (in words) ([1]; hCMVEC, 100 μM, FIG. 3) | ATP release, % of the injury control ([1]; hCMVEC, ischemic injury solution 2 hours, 100 μM, FIG. 3, injury control 100±3.6%) | ATP release, % of the injury control [4]
1 | VDCFLSRPTEKT [Peptide5] | significantly reduced ATP release | 44.6±7.7% and 47.3±5.1% | 54.1±4.4% | 500 µM | 5 to 50 µM | – | – | –
2 | CC1(C)[C@@H](OC(=O)CCC(=O)O)CC[C@]2(C)[C@H]3C(=O)C=C4[C@@H]5C[C@@](C)(C(=O)O)CC[C@]5(C)CC[C@@]4(C)[C@]3(C)CC[C@@H]12 [CBX, Carbenoxolone] | – | – | – | – | – | significantly reduced ATP release | 9.1±10.1% | 13.4±4.8%
